In US20260226108A1, “FUSION POLYPEPTIDE AJ007 AND USE THEREOF” (NANJING ANJI BIOTECHNOLOGY CO, LTD., priority 2023, published 2026):
Residues, ends and D or L forms follow the SMILES beside them.

Assay: Ocular tissue distribution at equimolar concentration, eye dropping or intravitreal injection (Example 5), ELISA
Assay type: in vivo, C57BL/6J mice
Description: This example provides an ocular tissue distribution comparison experiment of the polypeptide eye drops (AJ007 eye drops) in Example 2 with an equimolar concentration of the multifunctional fusion polypeptide VI (HM-1), a multifunctional fusion polypeptide VI preparation (HM-1 preparation, with a polypeptide being HM-1 and a formulation of other excipients being the same as the AJ007 eye drops), a fusion polypeptide AJ007 preparation (TAT-HM-1, with a polypeptide being AJ007 and pure water as a vehicle) after eye dropping, and the multifunctional fusion polypeptide VI (HM-1) after intravitreal injection, which is specifically described below.
Animal grouping: […] C57BL/6J mice were randomly divided into a total of 7 time point groups, including 0 h, 10 min, 1 h, 3 h, 7 h, 12 h, and 24 h, with 2 mice in each group.
Experimental process: All the mice in the eye drop administration groups were administered bilateral eye drops 1 time, with 5 μL of a corresponding drug solution dropped into each eye, while 5 μL of a corresponding drug solution was injected into both eyes in the HM-1 intravitreal injection group. At the 7 time points of 0 h, 10 min, 1 h, 3 h, 7 h, 12 h, and 24 h after the completion of administration, the mice in the corresponding groups were respectively subjected to eyeball removal and blood collection, the collected whole blood was immediately centrifuged at 6,000 rpm for 5 minutes, and then, a supernatant was sucked and stored as a sample to be tested. Additionally, 3 tissue sites, namely the vitreous body, the retina, and the RPE/choroid complex, were isolated from an eyeball under a stereomicroscope, into which PBS was added at 1:10 for dilution, followed by grinding and centrifugation at 12,000 rpm for 5 minutes. A supernatant was sucked to serve as a sample to be tested. Subsequently, the concentration of HM-1 or fusion polypeptide AJ007 in each tissue was detected by an ELISA method.

Structure (SMILES)	maintenance time at the RPE/choroid complex (eye dropping)	maintenance time at the RPE/choroid complex (intravitreal injection)
C[C@H](NC(=O)CNC(=O)[C@H](CCCNC(=N)N)NC(=O)[C@H](CCCNC(=N)N)NC(=O)[C@H](CCCNC(=N)N)NC(=O)[C@H](CCCNC(=N)N)NC(=O)[C@H](CCC(N)=O)NC(=O)[C@H](CCCNC(=N)N)NC(=O)[C@H](CCCNC(=N)N)NC(=O)[C@H](CCCCN)NC(=O)[C@H](CCCCN)NC(=O)[C@H](CCCNC(=N)N)NC(=O)CNC(=O)[C@@H](N)Cc1ccc(O)cc1)C(=O)N[C@@H](CC(=O)O)C(=O)N[C@@H](CCCNC(=N)N)C(=O)N[C@@H](C)C(=O)NCC(=O)NCC(=O)NCC(=O)NCC(=O)N[C@@H](CCCNC(=N)N)C(=O)NCC(=O)N[C@@H](CC(=O)O)C(=O)O [AJ007] (H-YGRKKRRQRRRRGADRAGGGGRGD-OH; N-terminus and C-terminus assumed)	shorter	–
C[C@H](NC(=O)CNC(=O)[C@@H](N)CCCNC(=N)N)C(=O)N[C@@H](CC(=O)O)C(=O)N[C@@H](CCCNC(=N)N)C(=O)N[C@@H](C)C(=O)NCC(=O)NCC(=O)NCC(=O)NCC(=O)N[C@@H](CCCNC(=N)N)C(=O)NCC(=O)N[C@@H](CC(=O)O)C(=O)O [HM-1, Arg-Gly-Ala-Asp-Arg-Ala-Gly-Gly-Gly-Gly-Arg-Gly-Asp] (H-RGADRAGGGGRGD-OH; N-terminus and C-terminus assumed)	very short	shorter
